Values quoted from earlier work in PubChem BioAssay AID1259410 (Chemical Carcinogenesis Research Information System (CCRIS), 2018).
Square brackets hold non-standard residues; d marks the D form. Peptide text beside a SMILES is read from it. sY = N[C@@H](Cc1ccc(OS(=O)(=O)O)cc1)C(=O)O; pGlu = O=C1CC[C@@H](C(=O)O)N1

Tested on: rodent tumor promotion studies, tumor incidence
Test: CCRIS tumor promotion studies

In the case of Nc1nc(-c2ccccc2)c(-c2ccccc2)s1, the outcome (Carcinogen: N-ETHYL-N-HYDROXYETHYLNITROSAMINE, 13147-25-6, Doses [Carcinogen]: 1000 PPM IN DRINKING WATER FOR 2 WK, Doses [Promoter]: 0, 1.06% IN DIET FOR 14 WK BEGINNING POST CARCINOGEN TREATMENT (STUDY DURATION: 32 WK), Route [Carcinogen]: ORAL, Route [Promoter]: ORAL, Species: RAT, Strain/Sex: WISTAR/MALE) is given as “kidney: renal cell tumor” and the outcome (Carcinogen: N-ETHYL-N-HYDROXYETHYLNITROSAMINE, 13147-25-6, Doses [Carcinogen]: 1000 PPM IN DRINKING WATER FOR 2 WK, Doses [Promoter]: 0, 1.06% IN DIET FOR 30 WK BEGINNING POST CARCINOGEN TREATMENT (STUDY DURATION: 32 WK), Route [Carcinogen]: ORAL, Route [Promoter]: ORAL, Species: RAT, Strain/Sex: WISTAR/MALE) is given as “kidney: renal cell tumor”.
For [Cl][Cd][Cl], the outcome (Carcinogen: 3,2'-DIMETHYL-4-AMINOBIPHENYL, 13394-86-0, Doses [Carcinogen]: 50 MG/KG BW IN 0.5 ML CORN OIL 1/2 WK FOR 20 WK, Doses [Promoter]: 0, 10 UMOL/KG BW IN SALINE ONCE AT WK 20 (STUDY DURATION: 60 WK), Route [Carcinogen]: SUBCUTANEOUS, Route [Promoter]: INTRAMUSCULAR, Species: RAT, Strain/Sex: F344/MALE) is listed as “ventral prostate: carcinoma” and the outcome (Carcinogen: 3,2'-DIMETHYL-4-AMINOBIPHENYL, 13394-86-0, Doses [Carcinogen]: 50 MG/KG BW IN 0.5 ML CORN OIL 1/2 WK FOR 20 WK, Doses [Promoter]: 0, 10 UMOL/KG BW IN SALINE ONCE AT WK 20 AND 0, 5 UMOL/KG BW ONCE AT WK 40 (STUDY DURATION: 60 WK), Doses [Promoter]: 0, 10 UMOL/KG BW IN SALINE ONCE AT WK 20 AND 0, 5 UMOL/KG BW ONCE AT WK 40 (STUDY DURATION: 60 WK), Route [Carcinogen]: SUBCUTANEOUS, Route [Promoter]: INTRAMUSCULAR, Species: RAT, Strain/Sex: F344/MALE) is listed as “ventral prostate: carcinoma”.
In the case of CCCCCCCCCCCCCC(=O)OCC1=C[C@H]2C3C(C)(C)C3(OC(C)=O)[C@H](OC(=O)CCCCCCCCCCCCC)[C@@H](C)[C@]2(O)[C@@H]2C=C(C)C(=O)[C@]2(O)C1 (some centres not stated), the outcome (Carcinogen: 7,12-DIMETHYLBENZ[A]ANTHRACENE, 57-97-6, Doses [Carcinogen]: 100 NMOL ONCE, Doses [Promoter]: 0, 50, 100, 200 NMOL 2/WK FOR 24 WK BEGINNING 1 WK POST CARCINOGEN DOSE (STUDY DURATION: 25 WK), Doses [Promoter]: 0, 50, 100, 200 NMOL 2/WK FOR 24 WK BEGINNING 1 WK POST CARCINOGEN DOSE (STUDY DURATION: 25 WK), Route [Carcinogen]: DERMAL, Route [Promoter]: DERMAL, Species: MOUSE, Strain/Sex: NMRI/FEMALE) is listed as “skin: tumor”.
For CCCCCCCCCCCCCC, the outcome (Carcinogen: 7,12-DIMETHYLBENZ(A)ANTHRACENE, Doses [Carcinogen]: TOP, Route [Carcinogen]: DERMAL, Route [Promoter]: DERMAL, Species: MOUSE, Strain/Sex: FEMALE) is given as “integumentary system (skin)” and the outcome (Carcinogen: BENZO(A)PYRENE, Doses [Carcinogen]: TOP, Route [Carcinogen]: DERMAL, Route [Promoter]: DERMAL, Species: MOUSE, Strain/Sex: FEMALE) is given as “integumentary system (skin)”.
In the case of CSCC[C@H](NC(=O)[C@H](Cc1c[nH]c2ccccc12)NC(=O)CNC(=O)[C@@H](NC(=O)[C@H](Cc1ccc(OS(=O)(=O)O)cc1)NC(=O)[C@H](CC(=O)O)NC(=O)[C@H](CCC(N)=O)NC(=O)[C@@H]1CCC(=O)N1)[C@@H](C)O)C(=O)N[C@@H](CC(=O)O)C(=O)N[C@@H](Cc1ccccc1)C(N)=O ([pGlu]QD[sY]TGWMDF-NH2), the outcome (Carcinogen: 7,12-DIMETHYLBENZ[A]ANTHRACENE, 57-97-6, Doses [Carcinogen]: 2-3 MG ONCE, Doses [Promoter]: 0, 5 UG/KG 2/D FOR 15 D POST CARCINOGEN TREATMENT (STUDY DURATION: 6 MO), Route [Carcinogen]: PANCREATIC IMPLANT, Route [Promoter]: SUBCUTANEOUS, Species: RAT, Strain/Sex: SPRAGUE-DAWLEY/MALE) is listed as “pancreas: carcinoma”, the outcome (Carcinogen: N-METHYL-N'-NITRO-N-NITROSOGUANIDINE, 70-25-7, Doses [Carcinogen]: 50 UG/ML IN DRINKING WATER FOR 20 WK, Doses [Promoter]: 0, 10 UG/KG IN OLIVE OIL 1/2 D FOR 20 WK BEGINNING 3 D AFTER CARCINOGEN DOSE (STUDY DURATION: 52 WK), Route [Carcinogen]: ORAL, Route [Promoter]: SUBCUTANEOUS, Species: RAT, Strain/Sex: WISTAR/MALE) is listed as “glandular stomach: adenocarcinoma” and the outcome (Carcinogen: N-METHYL-N'-NITRO-N-NITROSOGUANIDINE, 70-25-7, Doses [Carcinogen]: 50 UG/ML IN DRINKING WATER FOR 25 WK, Doses [Promoter]: 2 UG/KG IN OLIVE OIL 1/2 D FOR 27 WK ADMINISTERED POST CARCINOGEN DOSE (STUDY DURATION: 52 WK), Route [Carcinogen]: ORAL, Route [Promoter]: SUBCUTANEOUS, Species: RAT, Strain/Sex: WISTAR/MALE) is listed as “stomach: adenocarcinoma”.
In the case of CC/C(=C(/CC)c1ccc(O)cc1)c1ccc(O)cc1, the outcome (Carcinogen: IRRADIATION, Doses [Carcinogen]: 260 CGY GAMMA RAYS AT DAY 20 OF PREGNANCY, Doses [Promoter]: 0, 0.376 UG/D RELEASED FROM PELLET IMPLANTED AFTER NURSING DISCONTINUED, PELLET REPLACED EVERY 8 WK (STUDY DURATION: 1 Y, Route [Carcinogen]: DERMAL, Route [Promoter]: IMPLANT, Species: RAT, Strain/Sex: WISTAR/FEMALE) is given as “mammary gland: tumor”, the outcome (Carcinogen: Sodium arsenite, 7781-46-5, Doses [Carcinogen]: 0, 85 ppm to dams on gestational days 8-18, Doses [Promoter]: 2 ug on days 1, 2, 3, 4, and 5 of life, study duration for pups 90 wks, Route [Carcinogen]: Drinking water, days 8-18 of gestation (dams), Route [Promoter]: Subcutaneous (to offspring), Species: Mouse, Strain/Sex: C3H/HeNCr, (25 Male and female offspring/Group of dams exposed to sodium arsenite)) is given as “males: urinary bladder: tumors, liver: tumors females: urogenital tumors” and the outcome (Carcinogen: URETHANE, 51-79-6, Doses [Carcinogen]: 500 MG/KG BW ONCE (STUDY DURATION: 19 WK), Doses [Promoter]: 5 MG/KG BW 1X/WK FOR 18 WK BEGINNING 1 WK POST LAST CARCINOGEN DOSE (STUDY DURATION: 19 WK), Route [Carcinogen]: INTRAPERITONEAL, Route [Promoter]: INTRAMUSCULAR, Species: MOUSE, Strain/Sex: KUNMING/FEMALE) is given as “liver: tumor”.
In the case of O=C1c2c(O)cccc2Cc2cccc(O)c21, the outcome (Carcinogen: 7,12-DIMETHYLBENZ(A)ANTHRACENE, Doses [Carcinogen]: TOP, Route [Carcinogen]: DERMAL, Route [Promoter]: DERMAL, Species: MOUSE, Strain/Sex: MALE,FEMALE) is given as “integumentary system (skin)”.
In the case of CC(C)(Oc1ccc(C2CCCc3ccccc32)cc1)C(=O)O (configuration not stated), the outcome (Carcinogen: DIETHYLNITROSAMINE, 55-18-5, 2-ACETYLAMINOFLUORENE, 6292-55-3, CARBON TETRACHLORIDE, 56-23-5, Carcinogen: DIETHYLNITROSAMINE, 55-18-5, 2-ACETYLAMINOFLUORENE, 6292-55-3, CARBON TETRACHLORIDE, 56-23-5, Doses [Carcinogen]: 200 MG/KG ONCE FOLLOWED 2 WK LATER BY 0.03% 2-ACETYLAMINOFLUORENE IN DIET FOR 2 WK PLUS 2 ML/KG CARBON TETRACHLORIDE IN, Doses [Promoter]: 0.1% IN DIET STARTING 1 WK POST 2-ACETYLAMINOFLUORENE AND CONTINUED FOR 6 MO (STUDY DURATION: 7 MO), Route [Carcinogen]: INTRAPERITONEAL, ORAL, INTRAGASTRIC, Route [Carcinogen]: INTRAPERITONEAL, ORAL, INTRAGASTRIC, Route [Promoter]: ORAL, Species: RAT, Strain/Sex: WISTAR/MALE) is listed as “liver: hepatocellular carcinoma”.
In the case of CCC1(CC)C(=O)NC(=O)NC1=O, the outcome (Carcinogen: DIETHYLNITROSAMINE, 55-18-5, Doses [Carcinogen]: 80 MG/KG BW ONCE, Doses [Promoter]: 0, 0.5% IN DIET FOR 39 WK BEGINNING 1 WK POST CARCINOGEN DOSE (STUDY DURATION: 40 WK), Route [Carcinogen]: INTRAPERITONEAL, Route [Promoter]: ORAL, Species: RAT, Strain/Sex: F344/MALE) is given as “liver: tumor”.
For Cc1cc(=O)n(-c2ccccc2)n1C, the outcome (Carcinogen: DIHYDROXY-DI-N-PROPYLNITROSAMINE, 53609-64-6, URACIL, 66-22-8, Carcinogen: DIHYDROXY-DI-N-PROPYLNITROSAMINE, 53609-64-6, URACIL, 66-22-8, Doses [Carcinogen]: 1% DHPN IN DRINKING WATER AND 3% URACIL IN DIET FOR 4 WK, Doses [Promoter]: 0, 1% IN DIET BEGINNING 1 WK POST CARCINOGEN TREATMENT AND CONTINUING FOR 35 WK (STUDY DURATION: 40 WK), Route [Carcinogen]: ORAL, ORAL, Route [Promoter]: ORAL, Species: RAT, Strain/Sex: F344/MALE) is given as “kidney: adenoma or adenocarcinoma”.
